Data on 33 molecules can be found in patent publication US8618111B2, “5-alkynyl-pyrimidines” (Boehringer Ingelheim International GmbH, priority 2010, dated 2013).

Usually IC50 stands for the concentration at which inhibition is half-maximal. A lower IC50 goes with inhibition by little substance. A word on the EC50: it is the concentration at which the effect is half-maximal.

Test [1] concerns the target mTOR (Homo sapiens (Human), UniProt P42345). Briefly: mTOR kinase activity assay (phosphorylation status of mTOR substrate 4E-BP1; TR-FRET). In kind it is biochemical. Particulars: GFP-4E-BP1 substrate, 8 μM ATP.
For test [2], the system named is BT474. Put plainly: BT474 cell assay (EC50). In kind it is cell-based. Conditions: Homo sapiens, BT-474; BT474 cells.
For test [3], the target named is PI3Kalpha (Homo sapiens (Human), UniProt P42336). Briefly: Inhibition of PI3Kalpha-induced PIP-2 phosphorylation (filter-binding assay). In kind it is biochemical. Particulars: 33P-ATP. As for the experimental part:
Inhibition of PI3Kalpha-Induced PIP-2 Phosphorylation
Method Type: Filter-Binding-Assay
Aliquoted in desired amounts and stored at −80° C. Final assay concentration 25 ng/well.

Test [4] concerns U87MG human glioblastoma cell line. Briefly: CyQuant assay in U87MG cells. Conditions: U-87 MG, 72 h, 3 days incubation. In kind it is cell-based. As for the experimental part:
CyQuant Assay in U87MG Cells
3. […] Evaluation • Calculate EC50 using GraphPad Prism (Fifty)

Test [5] deals with PC3 (human prostate carcinoma cell line) cells. Briefly: PC3 proliferation test. Type of test: cell-based. Conditions: PC-3, 72 h, 3 days incubation, DNA dye fluorescence.

mTOR, sequence (P42345 1360-2549): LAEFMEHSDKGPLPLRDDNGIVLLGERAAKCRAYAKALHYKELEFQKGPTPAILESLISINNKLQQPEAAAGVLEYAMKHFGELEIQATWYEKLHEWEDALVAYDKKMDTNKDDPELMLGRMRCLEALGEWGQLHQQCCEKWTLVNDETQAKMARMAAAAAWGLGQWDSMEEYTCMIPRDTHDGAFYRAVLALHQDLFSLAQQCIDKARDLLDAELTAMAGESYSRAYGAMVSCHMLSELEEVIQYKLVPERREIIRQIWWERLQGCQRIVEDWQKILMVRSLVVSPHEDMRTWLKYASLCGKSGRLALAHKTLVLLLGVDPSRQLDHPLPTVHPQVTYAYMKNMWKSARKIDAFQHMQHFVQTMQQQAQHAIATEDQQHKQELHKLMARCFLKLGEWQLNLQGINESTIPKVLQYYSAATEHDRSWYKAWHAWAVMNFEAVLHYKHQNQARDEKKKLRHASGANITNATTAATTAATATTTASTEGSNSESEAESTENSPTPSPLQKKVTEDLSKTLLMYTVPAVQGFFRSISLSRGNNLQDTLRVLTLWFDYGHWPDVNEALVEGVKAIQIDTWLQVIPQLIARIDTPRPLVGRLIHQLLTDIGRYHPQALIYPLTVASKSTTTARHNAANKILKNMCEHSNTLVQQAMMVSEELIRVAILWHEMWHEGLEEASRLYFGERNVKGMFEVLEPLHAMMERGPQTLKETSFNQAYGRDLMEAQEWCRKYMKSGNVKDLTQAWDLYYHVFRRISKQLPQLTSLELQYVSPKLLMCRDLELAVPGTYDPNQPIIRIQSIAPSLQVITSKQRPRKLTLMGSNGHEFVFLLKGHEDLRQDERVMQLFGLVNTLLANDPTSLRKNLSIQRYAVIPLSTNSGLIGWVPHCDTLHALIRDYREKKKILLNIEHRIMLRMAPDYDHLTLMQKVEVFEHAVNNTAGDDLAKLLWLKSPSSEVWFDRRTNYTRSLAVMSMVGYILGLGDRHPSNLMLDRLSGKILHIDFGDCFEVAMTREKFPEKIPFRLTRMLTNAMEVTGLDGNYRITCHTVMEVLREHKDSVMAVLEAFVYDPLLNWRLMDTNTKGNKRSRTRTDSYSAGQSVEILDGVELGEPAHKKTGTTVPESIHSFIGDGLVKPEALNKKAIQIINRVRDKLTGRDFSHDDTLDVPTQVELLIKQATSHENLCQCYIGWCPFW
PI3Kalpha, sequence (P42336 whole entry, species assumed): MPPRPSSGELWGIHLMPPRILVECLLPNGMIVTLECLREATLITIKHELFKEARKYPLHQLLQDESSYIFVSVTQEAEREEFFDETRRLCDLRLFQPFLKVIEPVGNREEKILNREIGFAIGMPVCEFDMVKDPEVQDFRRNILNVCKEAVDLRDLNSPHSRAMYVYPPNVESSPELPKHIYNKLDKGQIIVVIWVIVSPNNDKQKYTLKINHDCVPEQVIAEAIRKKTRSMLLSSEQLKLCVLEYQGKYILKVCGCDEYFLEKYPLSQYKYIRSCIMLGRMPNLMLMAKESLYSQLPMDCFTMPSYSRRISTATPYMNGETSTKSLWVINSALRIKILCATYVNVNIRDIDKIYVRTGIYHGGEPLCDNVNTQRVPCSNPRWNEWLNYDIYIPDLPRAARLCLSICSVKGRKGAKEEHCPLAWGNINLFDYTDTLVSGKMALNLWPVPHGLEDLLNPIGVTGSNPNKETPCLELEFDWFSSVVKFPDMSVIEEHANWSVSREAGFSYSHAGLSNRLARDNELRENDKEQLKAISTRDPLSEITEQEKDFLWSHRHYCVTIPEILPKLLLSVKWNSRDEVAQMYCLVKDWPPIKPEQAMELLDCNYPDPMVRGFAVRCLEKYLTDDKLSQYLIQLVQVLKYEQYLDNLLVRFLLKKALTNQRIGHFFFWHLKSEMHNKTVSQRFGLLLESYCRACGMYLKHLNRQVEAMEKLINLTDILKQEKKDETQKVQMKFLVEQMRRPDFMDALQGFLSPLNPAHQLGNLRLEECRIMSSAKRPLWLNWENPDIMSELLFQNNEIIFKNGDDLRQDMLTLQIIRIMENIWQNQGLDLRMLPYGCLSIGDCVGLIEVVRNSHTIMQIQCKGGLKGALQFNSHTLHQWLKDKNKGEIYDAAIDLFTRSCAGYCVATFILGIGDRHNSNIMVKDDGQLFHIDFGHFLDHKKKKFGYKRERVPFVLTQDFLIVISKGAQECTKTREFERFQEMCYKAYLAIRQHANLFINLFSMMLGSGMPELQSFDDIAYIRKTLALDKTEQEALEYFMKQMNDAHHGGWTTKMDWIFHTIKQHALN
PI3Kalpha, sequence (P27986 whole entry partner, species assumed): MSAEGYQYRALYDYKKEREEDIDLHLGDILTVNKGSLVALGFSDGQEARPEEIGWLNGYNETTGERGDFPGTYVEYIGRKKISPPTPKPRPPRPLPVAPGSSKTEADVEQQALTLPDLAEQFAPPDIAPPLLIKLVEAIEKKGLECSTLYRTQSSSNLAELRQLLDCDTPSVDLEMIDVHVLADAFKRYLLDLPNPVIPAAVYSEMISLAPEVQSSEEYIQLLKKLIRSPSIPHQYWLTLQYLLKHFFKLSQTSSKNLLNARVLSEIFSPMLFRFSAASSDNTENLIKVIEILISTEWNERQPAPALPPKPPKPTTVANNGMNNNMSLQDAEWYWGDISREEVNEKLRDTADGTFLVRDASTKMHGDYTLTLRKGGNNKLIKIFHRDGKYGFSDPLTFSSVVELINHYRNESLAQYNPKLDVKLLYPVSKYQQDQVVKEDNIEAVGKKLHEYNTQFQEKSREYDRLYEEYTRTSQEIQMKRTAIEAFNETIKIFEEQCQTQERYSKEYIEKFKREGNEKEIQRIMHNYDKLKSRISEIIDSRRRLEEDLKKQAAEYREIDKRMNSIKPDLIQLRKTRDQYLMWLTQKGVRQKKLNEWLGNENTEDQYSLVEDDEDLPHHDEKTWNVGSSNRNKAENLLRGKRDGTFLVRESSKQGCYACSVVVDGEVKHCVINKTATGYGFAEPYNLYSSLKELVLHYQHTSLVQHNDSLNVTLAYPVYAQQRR

Regarding `CCc1ncnc(N2CCN(CCNS(C)(=O)=O)CC2)c1C#Cc1ccc(N)nc1` [Example H-14], the IC50 in test [1] amounted to 0.018 µM. Also, the EC50 in test [2] is 0.063 µM. The “IC50 PI3Ka” value in test [3] was 0.06 µM.

On to `CCc1ncnc(N2CCN(c3ccccc3)CC2)c1C#Cc1ccc(N)nc1` [Example H-24], for which, in test [1], half-maximal inhibition (IC50) was put at 0.089 µM. This molecule also returned an EC50 in test [2] of 0.078 µM. Further, the “IC50 PI3Ka” value in test [3] amounted to 0.129 µM.

With `CCc1ncnc(N2CCCCC2)c1C#Cc1ccc(NC)nc1` [Example H-1], in test [4], the EC50 was determined as 0.745 µM. In test [1], the IC50 was determined as 0.055 µM. In addition, the “IC50 PI3Ka” value in test [3] was 0.214 µM.

`CCc1ncnc(N2CCN(C)C(=O)C2)c1C#Cc1ccc(N)nc1` [Example H-13]: in test [1], it took 0.037 µM to reach half-maximal inhibition (IC50). This molecule registered an EC50 in test [2] of 0.076 µM. Moreover, the “IC50 PI3Ka” value in test [3] was 0.072 µM.

Regarding `CCc1ncnc(N2CCc3ncncc3C2)c1C#Cc1ccc(N)nc1` [Example H-11], in test [1], the IC50 stood at 0.027 µM. The response in test [2] was half-maximal at 0.093 µM (EC50). Also, in test [3], the “IC50 PI3Ka” value was determined as 0.05 µM.

As for `CCc1ncnc(N2CCN(c3cccnc3)CC2)c1C#Cc1ccc(N)nc1` [Example H-23], the IC50 in test [1] worked out at 0.014 µM. Further, in test [2], the EC50 is 0.139 µM. Also, the “IC50 PI3Ka” value in test [3] came out at 0.048 µM.

In test [1], `CCc1ncnc(N2CCN(c3ccccn3)CC2)c1C#Cc1ccc(N)nc1` [Example H-21] gave an IC50 of 0.033 µM. The molecule also registered an EC50 in test [2] of 0.068 µM. Moreover, in test [3], the “IC50 PI3Ka” value came out at 0.042 µM.

`CCc1ncnc(N2CCN(c3ncccn3)CC2)c1C#Cc1ccc(N)nc1` [Example H-25] registered an IC50 in test [1] of 0.014 µM. For the same molecule, the EC50 in test [2] amounted to 0.015 µM. In addition, the “IC50 PI3Ka” value in test [3] came out at 0.048 µM.

In test [1], `CCc1ncnc(N2CCN(CC(C)O)CC2)c1C#Cc1ccc(N)nc1` (stereo not drawn) [Example H-20] displayed an IC50 of 0.051 µM. This molecule showed an EC50 in test [2] of 0.138 µM. Besides, the “IC50 PI3Ka” value in test [3] came out at 0.152 µM.

In the case of `CCc1ncnc(N2CCC3(CC2)COC3)c1C#Cc1ccc(N)nc1` [Example H-7], in test [1], the IC50 is 0.138 µM. A half-maximal effect in test [2] (EC50) was put at 0.944 µM. In addition, the “IC50 PI3Ka” value in test [3] came to 0.097 µM.

`CCc1ncnc(N2CCN(C(C)C)CC2)c1C#Cc1ccc(N)nc1` [Example H-6] registered an IC50 in test [1] of 0.015 µM. Further, the EC50 in test [2] is 0.072 µM. Further, the “IC50 PI3Ka” value in test [3] came to 0.055 µM.

As for `CCc1ncnc(N2CCOC(C)(C)C2)c1C#Cc1ccc(N)nc1` [Example B-50], in test [1], the midpoint of inhibition, the IC50, lay at 0.03 µM. In addition, a half-maximal response in test [5] (EC50) required 0.056 µM. Besides, the “IC50 PI3Ka” value in test [3] amounted to 0.049 µM.

With `CCc1ncnc(N2CCN(C(=O)c3ccco3)CC2)c1C#Cc1ccc(N)nc1` [Example G-7], the IC50 in test [1] amounted to 0.06 µM. Besides, the EC50 in test [5] was 0.197 µM. For the same molecule, the “IC50 PI3Ka” value in test [3] was 0.037 µM.

In test [1], `CCc1ncnc(N2CCN(C(=O)C3CC3)CC2)c1C#Cc1ccc(N)nc1` [Example G-4] yielded an IC50 of 0.113 µM. In addition, in test [5], the EC50 turned out to be 0.206 µM. Also, the “IC50 PI3Ka” value in test [3] was determined as 0.046 µM.

As to `CCc1ncnc(N2CCN(c3ccncc3)CC2)c1C#Cc1ccc(N)nc1` [Example H-22], the IC50 in test [1] stood at 0.049 µM. In test [2], this molecule displayed an EC50 of 0.194 µM. Also, the “IC50 PI3Ka” value in test [3] was 0.229 µM.

`CCc1ncnc(N2CCC3(CCN(C(=O)COC)CC3)CC2)c1C#Cc1ccc(N)nc1` [Example G-12] had an IC50 in test [1] of 0.032 µM. Besides, it took 0.041 µM to reach a half-maximal effect in test [5] (EC50). Also, in test [3], the “IC50 PI3Ka” value was 0.037 µM.

In test [1], `CCc1ncnc(N2CCC(C)(OC)CC2)c1C#Cc1ccc(N)nc1` [Example B-59] yielded an IC50 of 0.005 µM. The same molecule showed an EC50 in test [5] of 0.023 µM. In addition, in test [3], the “IC50 PI3Ka” value is 0.053 µM.

Consider `CCc1ncnc(N2CC[S+]([O-])CC2)c1C#Cc1ccc(N)nc1` [Example B-52], for which the IC50 in test [1] came to 0.028 µM. The molecule further displayed an EC50 in test [5] of 0.18 µM. Further, in test [3], the “IC50 PI3Ka” value was determined as 0.104 µM.

Take `CCc1ncnc(N2CCCC(NC(C)=O)C2)c1C#Cc1ccc(N)nc1` (stereo not drawn) [Example B-20]: in test [1], 0.016 µM corresponded to half-maximal inhibition (IC50). The molecule further had an EC50 in test [5] of 0.158 µM. Also, the “IC50 PI3Ka” value in test [3] amounted to 0.167 µM.

The molecule `Cc1ncnc(N2CCC(CC(=O)N(C)C)CC2)c1C#Cc1ccc(N)nc1` [Example E-1] returned an IC50 in test [1] of 0.045 µM. The molecule further showed an EC50 in test [5] of 0.221 µM. In addition, the “IC50 PI3Ka” value in test [3] stood at 0.054 µM.

`CCc1ncnc(N2CCS(=O)(=O)CC2)c1C#Cc1ccc(N)nc1` [Example B-53] gave an IC50 in test [1] of 0.012 µM. Also, the EC50 in test [5] was found to be 0.142 µM. In addition, the “IC50 PI3Ka” value in test [3] was determined as 0.38 µM.

`CCc1ncnc(N2CCC(O)CC2)c1C#Cc1ccc(C)nc1` [Example B-70] came in with an IC50 in test [1] of 0.141 µM. The same molecule showed an EC50 in test [5] of 0.684 µM. Moreover, in test [3], the “IC50 PI3Ka” value stood at 0.139 µM.

For `Cc1ncnc(N2CCN(C)CC2)c1C#Cc1ccc(N)nc1` [Example B-8], in test [1], the IC50 stood at 0.056 µM. Besides, in test [5], the EC50 worked out at 0.277 µM. For the same molecule, the “IC50 PI3Ka” value in test [3] was found to be 0.547 µM.

The molecule `COCCC(=O)NCC1CCN(c2ncnc(C)c2C#Cc2ccc(N)nc2)CC1` [Example F-5] gave a concentration for half-maximal inhibition (IC50) in test [1] of 0.018 µM. In test [5], this molecule came in with an EC50 of 0.141 µM. The “IC50 PI3Ka” value in test [3] was 0.069 µM.

`Cc1ncnc(N2CCC3(CC2)OCCCO3)c1C#Cc1ccc(N)nc1` [Example B-60] showed an IC50 in test [1] of 0.006 µM. In addition, in test [5], the EC50 was 0.075 µM. Moreover, the “IC50 PI3Ka” value in test [3] worked out at 0.014 µM.

For `COCCN1CCN(c2ncnc(C)c2C#Cc2ccc(N)nc2)CC1` [Example B-2], the IC50 in test [1] is 0.032 µM. The molecule also registered an EC50 in test [5] of 0.301 µM. Further, in test [3], the “IC50 PI3Ka” value was found to be 0.145 µM.

The molecule `CCc1ncnc(N2CCC(O)(CC)CC2)c1C#Cc1ccc(C)nc1` [Example B-33] gave an IC50 in test [1] of 0.051 µM. In addition, the midpoint of the response in test [5], the EC50, lay at 0.152 µM. In test [3], the “IC50 PI3Ka” value was found to be 0.102 µM.

`CCc1ncnc(N2CCN(C3CC3)CC2)c1C#Cc1ccc(N)nc1` [Example B-51] had an IC50 in test [1] of 0.043 µM. Also, it took 0.129 µM to reach a half-maximal effect in test [5] (EC50). The “IC50 PI3Ka” value in test [3] was 0.086 µM.

`CCc1ncnc(N2CCC(O)C(C)C2)c1C#Cc1ccc(N)nc1` (stereo not drawn) [Example B-64] came in with an IC50 in test [1] of 0.01 µM. Besides, in test [5], a half-maximal effect (EC50) was put at 0.053 µM. For the same molecule, the “IC50 PI3Ka” value in test [3] was found to be 0.055 µM.

The molecule `CCNC(=O)CC1CCN(c2ncnc(C)c2C#Cc2ccc(N)nc2)CC1` [Example E-5] gave an IC50 in test [1] of 0.058 µM. A half-maximal effect in test [5] (EC50) was put at 0.171 µM. For the same molecule, the “IC50 PI3Ka” value in test [3] stood at 0.038 µM.

In test [1], `CCc1ncnc(N2CCOCC2)c1C#Cc1ccc(N)nc1` [Example B-57] had an IC50 of 0.093 µM. In test [5], the EC50 amounted to 0.119 µM. Moreover, the “IC50 PI3Ka” value in test [3] was found to be 0.046 µM.

Turning to `CCc1ncnc(N2CCC3(CCN(C(=O)NC)CC3)CC2)c1C#Cc1ccc(N)nc1` [Example G-13], the IC50 in test [1] turned out to be 0.035 µM. This molecule returned an EC50 in test [5] of 0.053 µM. Further, the “IC50 PI3Ka” value in test [3] came out at 0.05 µM.

Turning to `Cc1ncnc(N2CCC(O)(C(C)C)CC2)c1C#Cc1ccc(N)nc1` [Example B-66], the IC50 in test [1] is 0.005 µM. In test [5], this molecule returned an EC50 of 0.024 µM. Moreover, the “IC50 PI3Ka” value in test [3] was found to be 0.051 µM.
